From patent US6306890A, “Esters derived from indolealkanols and novel amides derived from indolealkylamides that are selective COX-2 inhibitors” (Vanderbilt University, priority 1999, dated 2001) come the findings set out here.

Read-outs that look alike come from different tables or passages of the source.

For one assay, the target named is T1, ovine COX-1 (Ovis aries, UniProt P05979).
T1 sequence (P05979 25-600): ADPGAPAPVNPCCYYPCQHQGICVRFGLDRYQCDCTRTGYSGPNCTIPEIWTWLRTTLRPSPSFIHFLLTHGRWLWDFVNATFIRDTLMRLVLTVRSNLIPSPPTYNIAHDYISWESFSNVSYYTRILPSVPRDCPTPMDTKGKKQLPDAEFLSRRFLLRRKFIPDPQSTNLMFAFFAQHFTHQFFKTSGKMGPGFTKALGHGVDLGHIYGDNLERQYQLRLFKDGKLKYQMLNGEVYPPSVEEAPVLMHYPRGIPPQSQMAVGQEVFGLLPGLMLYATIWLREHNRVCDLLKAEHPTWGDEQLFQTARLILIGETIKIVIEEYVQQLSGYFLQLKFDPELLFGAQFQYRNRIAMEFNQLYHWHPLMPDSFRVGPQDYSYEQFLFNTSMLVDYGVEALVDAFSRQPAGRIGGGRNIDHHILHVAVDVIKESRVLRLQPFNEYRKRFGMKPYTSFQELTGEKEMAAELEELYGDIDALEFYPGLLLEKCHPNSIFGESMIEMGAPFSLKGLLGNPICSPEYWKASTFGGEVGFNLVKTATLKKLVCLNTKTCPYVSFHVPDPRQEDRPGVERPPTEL
The experiment in a line: Inhibition of ovine COX-1, TLC assay ([1-14C]-arachidonic acid), time-dependent.

The target in the next assay is T2, human COX-2 (Homo sapiens, UniProt P35354).
T2 sequence (P35354 18-604): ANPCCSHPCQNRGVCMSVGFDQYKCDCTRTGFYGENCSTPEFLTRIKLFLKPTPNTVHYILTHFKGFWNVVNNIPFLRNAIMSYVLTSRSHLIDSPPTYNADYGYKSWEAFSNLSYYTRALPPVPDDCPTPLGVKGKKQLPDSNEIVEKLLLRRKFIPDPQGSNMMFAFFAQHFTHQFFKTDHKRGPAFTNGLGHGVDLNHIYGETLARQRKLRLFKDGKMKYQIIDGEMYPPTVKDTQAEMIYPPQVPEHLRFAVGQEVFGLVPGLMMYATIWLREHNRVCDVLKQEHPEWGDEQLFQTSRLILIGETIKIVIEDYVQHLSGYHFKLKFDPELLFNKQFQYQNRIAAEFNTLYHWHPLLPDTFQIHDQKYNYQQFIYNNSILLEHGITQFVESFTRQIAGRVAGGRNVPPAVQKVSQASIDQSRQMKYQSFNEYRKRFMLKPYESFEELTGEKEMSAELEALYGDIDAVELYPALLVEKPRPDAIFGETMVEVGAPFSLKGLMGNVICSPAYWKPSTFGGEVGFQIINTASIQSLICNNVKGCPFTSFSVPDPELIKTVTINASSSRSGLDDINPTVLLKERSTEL
The experiment in a line: Inhibition of purified human COX-2, TLC assay ([1-14C]-arachidonic acid), time-dependent. Particulars: for Selectivity: COX-2 selectivity ratio, IC50 COX-1 / IC50 COX-2.

Assay [1] concerns the target T3, COX-2 in activated RAW264.7 macrophages (Mus musculus, UniProt Q05769).
T3 construct: PGD2 from [1-14C]-arachidonic acid by TLC
T3 sequence (Q05769 18-604): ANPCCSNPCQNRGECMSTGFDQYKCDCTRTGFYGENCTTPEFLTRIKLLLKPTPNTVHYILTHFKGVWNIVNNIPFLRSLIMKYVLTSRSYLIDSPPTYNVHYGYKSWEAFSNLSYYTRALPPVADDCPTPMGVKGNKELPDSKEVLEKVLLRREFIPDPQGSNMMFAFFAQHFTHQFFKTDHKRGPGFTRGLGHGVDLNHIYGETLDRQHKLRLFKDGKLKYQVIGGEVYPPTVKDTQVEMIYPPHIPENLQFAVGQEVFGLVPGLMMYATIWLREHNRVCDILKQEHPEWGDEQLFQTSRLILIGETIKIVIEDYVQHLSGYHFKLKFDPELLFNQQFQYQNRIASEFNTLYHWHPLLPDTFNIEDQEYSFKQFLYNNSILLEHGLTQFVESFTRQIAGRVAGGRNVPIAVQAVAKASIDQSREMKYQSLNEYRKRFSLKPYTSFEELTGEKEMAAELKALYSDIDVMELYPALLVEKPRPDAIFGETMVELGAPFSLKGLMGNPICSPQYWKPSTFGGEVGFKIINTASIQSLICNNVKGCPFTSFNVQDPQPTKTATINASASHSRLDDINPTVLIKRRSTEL
Nature of the assay: Inhibition of COX-2 activity (PGD2 production) in intact activated RAW264.7 cells. Format: cell-based, murine. Particulars: FIG. 1; inhibitor 0-1 μM, 30 minutes at 37° C.; LPS + IFN-γ activated. The protocol:
The ability of these compounds to inhibit COX-2 in intact cells was assayed in activated RAW264.7 macrophages in which COX-2 activity was induced by pathologic stimuli. The macrophages were treated with lipopolysaccharide ([…]) and γ-interferon (10 U/mL) for 7.5 hours to induce COX-2 and then treated with several concentrations of each of inventive Compounds 5c, 5e, and 9e.
More specifically, low passage number murine RAW264.7 cells were grown in DMEM containing 10% heat-inactivated FBS. Cells (6.2×10^6 cells/T25 flask) were activated with 500 ng/mL LPS and 10 units/mL IFN-γ in serum-free DMEM for 7 hours. Vehicle (DMSO) or inhibitor (inventive Compound 5c, 5e, or 9e) in DMSO (0-1 μM) was added for 30 minutes at 37° C. […] Aliquots (200 μL) were removed into termination solution and total products were quantitatively determined by the TLC assay as described earlier.

The subject of assay [2] is carrageenan-induced rat foot paw edema. Nature of the assay: Carrageenan-induced rat foot paw edema assay. Format: in vivo, rat (male Sprague Dawley). Particulars: FIG. 2 / FIG. 3; gavage 1 hour after carrageenan, paw volume at 3 hour post-injection. Here is the method:
All procedures were performed according to approved animal protocols (#M/98/251, Vanderbilt University Animal Care Committee). Male Sprague Dawley rats (Harlan Sprague Dawley, Indianapolis, Ind.) (150-175 grams) were fasted for 18 hours and then injected with λ-carrageenan (0.1 ml of a 1% suspension in 0.85% saline, Fluka BioChemika, Milwaukee, Wis.) into the right hind footpad. After 1 hour, 90 μl inhibitor (either Compound 5c or Compound 9e) in DMSO was added to 6 ml corn oil, and the rats were gavaged with 0.5 ml corn oil containing DMSO or containing DMSO and inhibitor.
The ipsilateral footpad volume was measured with a water displacement plethysmometer (Ugo Basile, Italy, distributed by Stoelting Co., Wood Dale, Ill.) at 3 hour post-injection and compared to the initial pre-injection paw volume. Inhibitor concentrations were varied as shown in FIG. 2 (Compound 5c) and FIG. 3 (Compound 9e), with n=6 animals per group in duplicate experiments.
For orientation: Carrageenan injected into the paw causes an acute inflammation.

For orientation: IC50 means the point on the concentration scale where inhibition reaches its midpoint.

Consider `COc1ccc2c(c1)c(CCOC(=O)c1ccc(Cl)cc1)c(C)n2Cc1ccc(Br)cc1` [Compound 5h, N-(p-bromobenzyl)-5-methoxy-2-methylindole-3-ethyl-(p-chloro)benzoate], for which, at ovine COX-1, the 50% inhibitory concentration (IC50) is > 66000 nM.
With `COc1ccc2c(c1)c(CCOC(=O)c1ccc(I)cc1)c(C)n2C(=O)c1ccc(Cl)cc1` [Compound 5g, N-(phlorobenzoyl)-5-methoxy-2-methylindole-3-ethyl(-p-iodo)benzoate], the IC50 was > 66000 nM on ovine COX-1 and 50 nM at human COX-2. Besides, the Selectivity at human COX-2 (Table 1 esters) is recorded as > 1320.
Take `CCCCC(=O)OCCc1c(C)n(C(=O)c2ccc(Cl)cc2)c2ccc(OC)cc12` [Compound 5a, N-(p-chlorobenzoyl)-5-methoxy-2-methylindole-3-ethyl-valerate]: the 50% inhibitory concentration (IC50) on ovine COX-1 (read-out: IC50 COX-1, Table 1 esters, ovine COX-1 (44 nM) preincubated 25° C. 15 min, [1-14C]-arachidonic acid 50 μM, 37° C., 30 seconds, duplicate) is > 66000 nM; on human COX-2 (read-out: IC50 COX-2, Table 1 esters, time-dependent inhibition, [1-14C]-arachidonic acid 50 μM, 37° C., 30 seconds, duplicate), 650 nM. For the same compound, the Selectivity at human COX-2 (Table 1 esters) is listed as > 1015.
`COc1ccc(C(=O)OCCc2c(C)n(C(=O)c3ccc(Cl)cc3)c3ccc(OC)cc23)cc1` [Compound 5c, N-(p-chlorobenzoyl)-5-methoxy-2-methylindole-3ethylo-(p-methoxy)benzoate]: in assay [1], the “inhibition of production of PGD2” value was “inhibition of production of PGD2”. In addition, the 50% inhibitory concentration (IC50) against ovine COX-1 was > 66000 nM; on human COX-2 it was 40 nM. For the same compound, the “inhibition of edema in the rat footpad” value in assay [2] is “inhibition of edema in the rat footpad”. For the same compound, the Selectivity at human COX-2 (Table 1 esters) is given as > 1466.
In the case of `COc1ccc2c(c1)c(CCOC(=O)c1ccc(Cl)cc1)c(C)n2C(=O)c1ccc(Cl)cc1` [Compound 5e, N -(p-chlorobenzoyl)-5-methoxy-2-methylindole-3-ethyl-(p-chloro)benzoate], in assay [1], the “inhibition of production of PGD2” value is listed as “inhibition of production of PGD2”. Moreover, the IC50 against ovine COX-1 was > 66000 nM; on human COX-2 it was 50 nM. In addition, the Selectivity on human COX-2 (Table 1 esters) was > 1320.
For the compound `COc1ccc2c(c1)c(CCOC(=O)c1ccc(C)cc1)c(C)n2C(=O)c1ccc(Cl)cc1` [Compound 5b, N-(pchlorobenzoyl)-5-methoxy-2-methylindole-ethyl-(p-methyl)benzoate], the IC50 was > 66000 nM against ovine COX-1 and 50 nM against human COX-2. Further, the Selectivity on human COX-2 (Table 1 esters) was > 1320.
Turning to `COc1ccc2c(c1)c(CCNC(=O)c1ccc(Cl)cc1)c(C)n2C(=O)c1ccc(Cl)cc1` [Compound 9e, N-(p-chlorobenzoyl)-5-methoxy-2-methylindole-3-ethyl-(p-chloro)benzamide], the “inhibition of production of PGD2” value in assay [1] is “inhibition of production of PGD2”. The IC50 worked out at 4000 nM on ovine COX-1 and 50 nM against human COX-2. The “inhibition of edema in the rat footpad” value in assay [2] is on record as “inhibition of edema in the rat footpad”. For the same compound, at human COX-2 (inventive amides table), the Selectivity came out at 80.
As to `COc1ccc2c(c1)c(CCOC(=O)c1ccc(Br)cc1)c(C)n2C(=O)c1ccc(Cl)cc1` [Compound 5f, N-(p-Chlorobenzoyl)-5-methoxy-2-methylindole-3-ethyl-(p-bromo)benzoate], the IC50 against ovine COX-1 was > 66000 nM; on human COX-2, 40 nM. In addition, the Selectivity at human COX-2 (Table 1 esters) is > 1466.
Consider `COc1ccc2c(c1)c(CCNC(=O)c1ccc(Cl)cc1)c(C)n2Cc1ccc(Br)cc1` [Compound 9h, N-(p-bromobenzyl)-5-methoxy-2-methylindole-3-ethyl(p-chloro) benzamide], for which, at ovine COX-1, the IC50 was > 66000 nM.
As for `COc1ccc2c(c1)c(CCOC(=O)c1ccccc1OC)c(C)n2C(=O)c1ccc(Cl)cc1` [Compound 5d, N-(pchlorobenzoyl)-5-methoxy-2-methylindole-3thyl-(o-methoxy)benzoate], the figures for the IC50 against ovine COX-1 and at human COX-2 were > 66000 nM and 50 nM, respectively. Besides, the Selectivity on human COX-2 (Table 1 esters) is > 1320.
As to “N-(p-chlorobenzoyl)-5-methoxy-2-methylindole-3-ethyl-(2-phenyl)ethylamide [Compound 9i]”, the half-maximal inhibitory concentration (IC50) is ~17000 nM on ovine COX-1 (read-out: IC50 COX-1, inventive amides table) and ~40 nM at human COX-2 (read-out: IC50 COX-2, inventive amides table). Moreover, the Selectivity at human COX-2 (inventive amides table) is given as ~ 425.
